According to PubChem BioAssay (NCI):
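Tested at 5 concentrations; 48 h exposure; 96-well plates; endpoints linearly interpolated, else capped at highest concentration. Abbreviation: GI50, concentration required for 50% inhibition of growth. Definition used: TGI = concentration required for complete inhibition of growth.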

Columns and labels:
Test in all cases: NCI-60 cell line screen, 48 h
786-0 renal = test system: 786-0 renal
SK-MEL-2 melanoma = test system: SK-MEL-2 melanoma
SK-OV-3 ovarian = test system: SK-OV-3 ovarian
DU-145 prostate = test system: DU-145 prostate
MALME-3M melanoma = test system: MALME-3M melanoma
TK-10 renal = test system: TK-10 renal
SF-268 CNS = test system: SF-268 CNS
T-47D breast = test system: T-47D breast
HT29 colon = test system: HT29 colon
HOP-62 NSCLC = test system: HOP-62 NSCLC
NCI-H23 lung = test system: NCI-H23 lung
OVCAR-8 ovarian = test system: OVCAR-8 ovarian
BT-549 breast = test system: BT-549 breast
UACC-62 melanoma = test system: UACC-62 melanoma
K-562 leukemia = test system: K-562 leukemia
NCI-H522 lung = test system: NCI-H522 lung
HS 578T breast = test system: HS 578T breast
SNB-19 CNS = test system: SNB-19 CNS
OVCAR-5 ovarian = test system: OVCAR-5 ovarian
MOLT-4 leukemia = test system: MOLT-4 leukemia
SF-295 CNS = test system: SF-295 CNS
HCT-15 colon = test system: HCT-15 colon
HL-60(TB) leukemia = test system: HL-60(TB) leukemia
A549 NSCLC = test system: A549 NSCLC
UO-31 renal = test system: UO-31 renal
SW-620 colon = test system: SW-620 colon
NCI-H226 lung = test system: NCI-H226 lung
SF-539 CNS = test system: SF-539 CNS
U251 CNS = test system: U251 CNS
UACC-257 melanoma = test system: UACC-257 melanoma
MDA-MB-231 breast = test system: MDA-MB-231 breast
OVCAR-3 ovarian = test system: OVCAR-3 ovarian
RPMI-8226 leukemia = test system: RPMI-8226 leukemia
SK-MEL-5 melanoma = test system: SK-MEL-5 melanoma
RXF 393 renal = test system: RXF 393 renal
SN12C renal = test system: SN12C renal
CAKI-1 renal = test system: CAKI-1 renal
IGROV1 ovarian = test system: IGROV1 ovarian
MCF7 breast = test system: MCF7 breast
MDA-MB-435 = test system: MDA-MB-435
A498 renal = test system: A498 renal
OVCAR-4 ovarian = test system: OVCAR-4 ovarian
PC-3 prostate = test system: PC-3 prostate
KM12 colon = test system: KM12 colon
HCT-116 colon = test system: HCT-116 colon
SNB-75 CNS = test system: SNB-75 CNS
EKVX NSCLC = test system: EKVX NSCLC
M14 melanoma = test system: M14 melanoma
LOX IMVI melanoma = test system: LOX IMVI melanoma
HCC-2998 colon = test system: HCC-2998 colon
ACHN renal = test system: ACHN renal
NCI-H460 lung = test system: NCI-H460 lung
COLO 205 colon = test system: COLO 205 colon
SK-MEL-28 melanoma = test system: SK-MEL-28 melanoma
HOP-92 NSCLC = test system: HOP-92 NSCLC

CN1CCN(Cc2ccc(NC(=O)c3cncc(C#Cc4c(N)ncc5c(F)cccc45)c3)cc2C(F)(F)F)CC1
GI50 (786-0 renal): 0.873 µM | TGI (786-0 renal): 1.62 µM | GI50 (SK-MEL-2 melanoma): 0.809 µM | TGI (SK-MEL-2 melanoma): 1.93 µM | GI50 (SK-OV-3 ovarian): 2.14 µM | TGI (SK-OV-3 ovarian): 7.45 µM | GI50 (DU-145 prostate): 0.832 µM | TGI (DU-145 prostate): 1.52 µM | GI50 (MALME-3M melanoma): 0.443 µM | TGI (MALME-3M melanoma): 1.23 µM | GI50 (TK-10 renal): 0.951 µM | TGI (TK-10 renal): 1.71 µM | GI50 (SF-268 CNS): 0.741 µM | TGI (SF-268 CNS): 1.61 µM | GI50 (T-47D breast): 1.94 µM | TGI (T-47D breast): 6.38 µM | GI50 (HT29 colon): 0.305 µM | TGI (HT29 colon): 1.08 µM | GI50 (HOP-62 NSCLC): 1.28 µM | TGI (HOP-62 NSCLC): 3.87 µM | GI50 (NCI-H23 lung): 0.804 µM | TGI (NCI-H23 lung): 1.69 µM | GI50 (OVCAR-8 ovarian): 0.988 µM | TGI (OVCAR-8 ovarian): 2.24 µM | GI50 (BT-549 breast): 1.64 µM | TGI (BT-549 breast): 4.32 µM | GI50 (UACC-62 melanoma): 0.845 µM | TGI (UACC-62 melanoma): 1.81 µM | GI50 (K-562 leukemia): 0.005 µM | TGI (K-562 leukemia): 0.738 µM | GI50 (NCI-H522 lung): 0.75 µM | TGI (NCI-H522 lung): 1.66 µM | GI50 (HS 578T breast): 0.812 µM | TGI (HS 578T breast): 2.18 µM | GI50 (SNB-19 CNS): 0.867 µM | TGI (SNB-19 CNS): 1.59 µM | GI50 (OVCAR-5 ovarian): 0.794 µM | TGI (OVCAR-5 ovarian): 1.56 µM | GI50 (MOLT-4 leukemia): 0.57 µM | TGI (MOLT-4 leukemia): 1.5 µM | GI50 (SF-295 CNS): 0.89 µM | TGI (SF-295 CNS): 1.77 µM | GI50 (HCT-15 colon): 0.6 µM | TGI (HCT-15 colon): 1.3 µM | GI50 (HL-60(TB) leukemia): 0.33 µM | TGI (HL-60(TB) leukemia): 1.22 µM | GI50 (A549 NSCLC): 0.794 µM | TGI (A549 NSCLC): 1.56 µM | GI50 (UO-31 renal): 0.712 µM | TGI (UO-31 renal): 1.42 µM | GI50 (SW-620 colon): 0.454 µM | TGI (SW-620 colon): 1.16 µM | GI50 (NCI-H226 lung): 0.689 µM | TGI (NCI-H226 lung): 3.38 µM | GI50 (SF-539 CNS): 0.593 µM | TGI (SF-539 CNS): 1.22 µM | GI50 (U251 CNS): 0.725 µM | TGI (U251 CNS): 1.42 µM | GI50 (UACC-257 melanoma): 0.854 µM | TGI (UACC-257 melanoma): 1.76 µM | GI50 (MDA-MB-231 breast): 0.522 µM | TGI (MDA-MB-231 breast): 1.17 µM | GI50 (OVCAR-3 ovarian): 0.828 µM | TGI (OVCAR-3 ovarian): 1.53 µM | GI50 (RPMI-8226 leukemia): 0.991 µM | TGI (RPMI-8226 leukemia): 2.37 µM | GI50 (SK-MEL-5 melanoma): 0.841 µM | TGI (SK-MEL-5 melanoma): 1.55 µM | GI50 (RXF 393 renal): 0.799 µM | TGI (RXF 393 renal): 1.54 µM | GI50 (SN12C renal): 0.743 µM | TGI (SN12C renal): 1.43 µM | GI50 (CAKI-1 renal): 0.86 µM | TGI (CAKI-1 renal): 1.61 µM | GI50 (IGROV1 ovarian): 0.726 µM | TGI (IGROV1 ovarian): 1.61 µM | GI50 (MCF7 breast): 0.55 µM | TGI (MCF7 breast): 1.31 µM | GI50 (MDA-MB-435): 0.597 µM | TGI (MDA-MB-435): 1.24 µM | GI50 (A498 renal): 0.763 µM | TGI (A498 renal): 1.55 µM | GI50 (OVCAR-4 ovarian): 0.503 µM | TGI (OVCAR-4 ovarian): 1.25 µM | GI50 (PC-3 prostate): 0.787 µM | TGI (PC-3 prostate): 1.6 µM | GI50 (KM12 colon): 0.0133 µM | TGI (KM12 colon): 0.65 µM | GI50 (HCT-116 colon): 0.517 µM | TGI (HCT-116 colon): 1.2 µM | GI50 (SNB-75 CNS): 0.827 µM | TGI (SNB-75 CNS): 1.55 µM | GI50 (EKVX NSCLC): 0.732 µM | TGI (EKVX NSCLC): 1.46 µM | GI50 (M14 melanoma): 0.388 µM | TGI (M14 melanoma): 1.17 µM | GI50 (LOX IMVI melanoma): 0.646 µM | TGI (LOX IMVI melanoma): 1.35 µM | GI50 (HCC-2998 colon): 0.821 µM | TGI (HCC-2998 colon): 1.56 µM | GI50 (ACHN renal): 0.708 µM | TGI (ACHN renal): 1.36 µM | GI50 (NCI-H460 lung): 0.803 µM | TGI (NCI-H460 lung): 1.57 µM | GI50 (COLO 205 colon): 0.638 µM | TGI (COLO 205 colon): 1.42 µM | GI50 (SK-MEL-28 melanoma): 0.831 µM | TGI (SK-MEL-28 melanoma): 1.56 µM | GI50 (HOP-92 NSCLC): 0.135 µM | TGI (HOP-92 NSCLC): 0.858 µM
